Measured values reported in ChEMBL document CHEMBL3988181, “GlaxoSmithKline Published Kinase Inhibitor Set 2 Onchocerca lienalis Screening Data”.

Experiment: GSK PKIS2: Screen against O. lienalis microfilariae, single point, at 3.1uM to assess reduction in motility. Compounds were also tested for cytotoxicity against Rhesus Monkey LLCMK2 cells.
Assay type: functional, Onchocerca lienalis, LLC-MK2
Details: CELL_LINE LLCMK2; CELL_SUPPLIER ECACC; CONC 3.1 uM; ORGANISM_SUPPLIER Extracted from peri-umbilical skin obtained from naturally infected cattle in the UK; temperature 37 degree C

Row | SMILES | MOTILITY REDUCTION/CYTOTOXICITY [%]
1 | Cc1cccc(-c2nc(Nc3ccncc3)c3sccc3n2)n1 | 46.7
2 | COc1cc(Nc2ccnc3ccc(C(F)(F)F)cc23)cc(OC)c1OC | 0
3 | COCCNC(=O)c1ccc(-c2cc(C(=O)NC3CC3)cc(F)c2C)cc1 | 0
4 | COC(=O)Nc1nc2ccc(Oc3ccc(NC(=O)Nc4cc(F)ccc4F)cc3)cc2[nH]1 | 40
5 | O=c1[nH]ccc2nc(N[C@@H]3CCNC3)nc(Nc3ccc4c(c3)S(=O)(=O)CC4)c12 | 0
6 | CSc1ccc(-c2nc3n(c2-c2ccncc2)CCC3)cc1 | 0
7 | CCC(CC)(CC)n1cnc2c(N)ncnc21 | 0
8 | O=C1NC(=O)C(c2ccccc2Cl)=C1Nc1cccc(C(=O)O)c1 | 0
9 | COc1cccc2c(-c3ccncc3)c(-c3ccc(F)cc3)nn12 | 66.7
10 | Cc1c(Cn2c(C)nn3c(=O)cc(N4CCO[C@H](C)C4)nc23)cccc1C(F)(F)F | 0
11 | CS(=O)(=O)CCNCc1nc(-c2ccc3ncnc(Nc4ccc5c(cnn5Cc5ccccc5)c4)c3c2)cs1 | 33.4
12 | COc1cc(Nc2nccc(N3CCC(NC(=O)Nc4ccc5c(c4)OCO5)C3)n2)cc(OC)c1OC (centres undefined) | 0
13 | Cc1cccc(Cn2ccn3c(=O)cc(N4CCOCC4)nc23)c1 | 0
14 | Cn1cnc2c(N)ncnc21 | 0
15 | CC(C)c1cc(-c2ccc3c(N)n[nH]c3c2)nc(N)n1 | 0
16 | Nc1ncc(-c2cccnc2)c2scc(-c3ccc4c(c3)CCN4C(=O)Cc3ccccc3)c12 | 0
17 | Cc1cccc(-c2nc(Nc3cccc(C(N)=O)c3)c3ccccc3n2)n1 | 46.7
18 | CS(=O)(=O)CCNCc1nc(-c2ccc3ncnc(Nc4ccc(OCc5ccccc5)c(Cl)c4)c3c2)cs1 | 0
19 | NC(=O)c1cccc(Nc2nccc(Nc3ccc(Oc4cccc(Cl)c4)c(Cl)c3)n2)c1 | 20
20 | c1ccc(Cn2ccc3cc(Nc4ncnc5ccccc45)ccc32)cc1 | 33.4
21 | CS(=O)(=O)c1ccccc1-c1nc(-c2ccc(F)cc2)c(-c2ccncc2)[nH]1 | 33.4
22 | NCCS[As](SCCN)c1ccc(Nc2nc(N)nc(N)n2)cc1 | 100
23 | CN(C)S(=O)(=O)c1cc(-c2ccc3nccc(-c4cccc(S(N)(=O)=O)c4)c3c2)cnc1N | 60

Row | SMILES | MOTILITY REDUCTION/CYTOTOXICITY [%]
24 | CN(C)c1ncnc2nc[nH]c12 [DIMETHYLADENINE] | 0
25 | Cc1c2ccc(N(C)c3ccnc(Nc4cccc(S(N)(=O)=O)c4)n3)cc2nn1Cc1ccccc1 | 0
26 | COc1cc2nccc(Nc3ccc(Oc4ccccc4)cc3)c2cc1OC | 0
27 | COc1cccc(CNC(=O)NC2CCN(c3ccnc(Nc4cc(OC)c(OC)c(OC)c4)n3)C2)c1 (centres undefined) | 66.7
28 | c1ccc(-c2n[nH]cc2-c2ccnc(-c3ccc(CN4CCOCC4)cc3)c2)nc1 | 40
29 | Cc1ccc(-c2nc(Nc3ccncc3)c3ccccc3n2)s1 | 0
30 | O=C1NC(=O)C(c2ccc(Cl)cc2)=C1Nc1ccccc1 | 33.4
31 | O=C(c1ccc(-c2cc(-c3c[nH]nc3-c3ccccn3)ccn2)cc1)N1CCCC1 | 0
32 | Nc1ncnc2c1nc(-c1ccccc1)n2-c1ccccc1 | 0
33 | CNc1nccc(-c2c(-c3ccc(F)cc3)ncn2C2CCN(C)CC2)n1 | 13.4
34 | CCn1c(-c2nonc2N)nc2c(C#CC(C)(C)O)ncc(OCCCCN)c21 | 13.4
35 | Cc1ccc(C)c(Oc2nccc(-c3c(-c4ccc(F)cc4)ncn3C3CCNCC3)n2)c1 | 26.7
36 | COc1cc(Nc2nccc(N3CCC(NC(=O)c4cccc(NC(C)=O)c4)C3)n2)cc(OC)c1OC (centres undefined) | 33.4
37 | NCC(NC(=O)c1cc(-c2cn[nH]c2)c(-c2ccnc3[nH]ccc23)s1)c1ccccc1 (centres undefined) | 0
38 | COc1ccc(COc2cc(-n3cnc4ccccc43)sc2C(N)=O)cc1 | 0
39 | Cc1ccc(CC(=O)N2CCc3cc(-c4cn(C)c5ncnc(N)c45)ccc32)cc1 | 0
40 | CN(c1ccc(NC(=O)N2CCN(CCCN3CCOCC3)CC2)cc1)c1ccnc(Nc2ccc(CS(C)(=O)=O)cc2)n1 | 0
41 | CCS(=O)(=O)c1ccc(OC)c(Nc2ncc(-c3ccc(F)cc3)o2)c1 | 0
42 | Cc1n[nH]c2ccc(-c3cc(OC[C@@H](N)Cc4ccccc4)cnc3-c3ccoc3)cc12 | 0
43 | Cc1cccc2c(-c3ccncn3)c(-c3ccc(F)cc3)nn12 | 13.4
44 | CN(C)c1cc(-c2ccc3c(N)n[nH]c3c2)nc(N)n1 | 0
45 | CC(C)NCC(Cc1ccccc1)NC(=O)c1cc(Br)c(-c2ccnc3[nH]ccc23)s1 (centres undefined) | 66.7
46 | Fc1ccc(-c2ncn(CCCN3CCOCC3)c2-c2cccnc2)cc1 | 0

Row | SMILES | MOTILITY REDUCTION/CYTOTOXICITY [%]
47 | Fc1ccc(-c2nn3cccc(F)c3c2-c2ccncc2)cc1 | 0
48 | C[C@@H](Oc1cc(-n2cnc3ccc(NC(=O)NC(C)(C)C)cc32)sc1C(N)=O)c1ccccc1Cl | 60
49 | CN(C(=O)c1ccc(-c2cc(-c3c[nH]nc3-c3ccccn3)ccn2)cc1)C1CCOCC1 | 0
50 | O=C(Nc1ccc2c(c1)OCO2)NC1CCN(c2ccnc(Nc3ccc(F)cc3)n2)C1 (centres undefined) | 33.4
51 | O=C1NC(=O)C(c2ccccc2Cl)=C1Nc1cccc(Cl)c1 | 0
52 | COC(=O)c1cccc(NC(=O)NC2CCN(c3ccnc(Nc4ccc(F)cc4)n3)C2)c1 (centres undefined) | 0
53 | Cc1ccc(NC(=O)Nc2cc(C(C)(C)C)nn2-c2ccccc2)cc1 | 0
54 | COc1ccc(Nc2nccc(NCCNC(=O)Nc3ccccc3F)n2)cc1 | 0
55 | COc1cc2ncn(-c3cc(OCC4CCCO4)c(C(N)=O)s3)c2cc1OC (centres undefined) | 46.7
56 | COc1cc2c(Nc3ccc(NC(=O)c4ccccc4)cc3)ncnc2cc1OCCCN1CCOCC1 | 0
57 | CC(C)c1nc(-c2cccc(NS(=O)(=O)c3c(F)cccc3F)c2)c(-c2ccnc(Nc3ccc(N4CCOCC4)nc3)n2)s1 | 0
58 | COC(=O)C(NC(=O)NC1CCN(c2ccnc(Nc3ccc(F)cc3)n2)C1)c1ccccc1 (centres undefined) | 0
59 | CSc1nccc(-c2c(-c3ccc(F)cc3)ncn2CCCN2CCOCC2)n1 | 33.4
60 | c1ccc(-c2n[nH]cc2-c2ccnc3ccccc23)nc1 | 0
61 | CC[C@@H]1CO[C@H](C(=O)Nc2ccccc2)CN1c1cc(-c2ccc3c(N)n[nH]c3c2)nc(NC)n1 | 0
62 | Cc1c(Cn2ccn3c(=O)nc(N4CCOCC4)cc23)cccc1C(F)(F)F | 0
63 | Cc1csc(-c2nc(Nc3ccncc3)c3ccccc3n2)n1 | 33.4
64 | FC(F)(F)c1ccc(/C=C/c2cncnc2Nc2ccc3[nH]c(Cc4ccccc4)nc3c2)cc1 | 100
65 | NS(=O)(=O)c1cccc(-c2ccc3nccc(-c4cccc(S(N)(=O)=O)c4)c3c2)c1 | 0
66 | c1ccc(-c2ccc3c(Nc4ccc5[nH]ccc5c4)ccnc3c2)nc1 | 33.4
67 | COc1cccc(C2=C(Nc3cccc(C(=O)O)c3)C(=O)NC2=O)c1 | 0
68 | Cc1nnc(-c2ccc(C)c(-c3ccc(C(=O)Nc4ccc(NS(C)(=O)=O)cc4)cc3)c2)o1 | 0
69 | COc1ccc(Nc2nccc(N3CCC(NC(=O)Nc4cc(C)ccc4C)C3)n2)cc1 (centres undefined) | 0

Row | SMILES | MOTILITY REDUCTION/CYTOTOXICITY [%]
70 | COc1cc2ncn(-c3cc(OCc4sccc4Cl)c(C(N)=O)s3)c2cc1OC | 13.4
71 | NC[C@H](CC1CCCCC1)NC(=O)c1cc(Br)c(-c2ccnc3[nH]ccc23)s1 | 0
72 | O=C(Nc1n[nH]c2nc(-c3ccco3)c(Br)cc12)c1ccc(CN2CCCC2)cc1 | 0
73 | O=C(NCC1CC1)c1ccc(-c2cc(C(=O)NC3CC3)ccc2F)cc1 | 0
74 | O=C(Nc1n[nH]c2nc(-c3ccccc3O)ccc12)C1CC1 | 0
75 | NC[C@H](Cc1ccc(C(F)(F)F)cc1)NC(=O)c1cc(Br)c(-c2ccnc3[nH]ccc23)s1 | 0
76 | O=C(Nc1ccc(Oc2ccc3[nH]c(NC(=O)c4ccco4)nc3c2)cc1)Nc1cc(C(F)(F)F)ccc1F | 0
77 | Cc1cccc2c(-c3ccncc3)c(-c3ccc(F)cc3)nn12 | 46.7
78 | CN1CCN(Cc2cccc(-c3ccc4c(Nc5ccc(Oc6ccccc6)cc5)ccnc4c3)c2)CC1 | 100
79 | COc1cccc(C2=C(Nc3ccc(Cl)c(C(=O)O)c3)C(=O)NC2=O)c1 | 0
80 | CN1CCN(CCNc2nc3ccc(Oc4ccc(NC(=O)Nc5cc(C(F)(F)F)ccc5F)cc4)cc3[nH]2)CC1 | 0
81 | O=c1cc(N2CCOCC2)nc2n(Cc3cccc4ccccc34)ccn12 | 0
82 | COc1ccc(S(=O)(=O)NC2CCN(c3cc(C)nc(Nc4cccc(C#N)c4)n3)CC2)cc1 | 0
83 | Cn1cc(-c2ccc3c(c2)CCN3C(=O)Cc2cccc(Cl)c2)c2c(N)ncnc21 | 0
84 | COc1ccc(Nc2nccc(NCCNC(=O)c3cc4ccccc4s3)n2)cc1 | 16.7
85 | Cn1cc(-c2ccc3c(c2)CCN3C(=O)Cc2cc(F)cc(C(F)(F)F)c2)c2c(N)ncnc21 | 0
86 | CCOC(=O)N1CCC(n2cnc(-c3ccc(F)cc3)c2-c2ccnc(N)n2)CC1 | 0
87 | c1ccc(-c2cc(-c3c[nH]nc3-c3ccccn3)ccn2)cc1 | 0
88 | Fc1ccc(-c2ncn(C3CCNCC3)c2-c2ccnc(Nc3ccccc3)n2)cc1 | 0
89 | Nc1nc(-c2nccs2)c(-c2ccnc3ccccc23)s1 | 0
